The target in experiment [1] is T1, Replicative DNA helicase DnaB (Mycobacterium tuberculosis, UniProt P9WMR3).
T1 sequence (P9WMR3 whole entry): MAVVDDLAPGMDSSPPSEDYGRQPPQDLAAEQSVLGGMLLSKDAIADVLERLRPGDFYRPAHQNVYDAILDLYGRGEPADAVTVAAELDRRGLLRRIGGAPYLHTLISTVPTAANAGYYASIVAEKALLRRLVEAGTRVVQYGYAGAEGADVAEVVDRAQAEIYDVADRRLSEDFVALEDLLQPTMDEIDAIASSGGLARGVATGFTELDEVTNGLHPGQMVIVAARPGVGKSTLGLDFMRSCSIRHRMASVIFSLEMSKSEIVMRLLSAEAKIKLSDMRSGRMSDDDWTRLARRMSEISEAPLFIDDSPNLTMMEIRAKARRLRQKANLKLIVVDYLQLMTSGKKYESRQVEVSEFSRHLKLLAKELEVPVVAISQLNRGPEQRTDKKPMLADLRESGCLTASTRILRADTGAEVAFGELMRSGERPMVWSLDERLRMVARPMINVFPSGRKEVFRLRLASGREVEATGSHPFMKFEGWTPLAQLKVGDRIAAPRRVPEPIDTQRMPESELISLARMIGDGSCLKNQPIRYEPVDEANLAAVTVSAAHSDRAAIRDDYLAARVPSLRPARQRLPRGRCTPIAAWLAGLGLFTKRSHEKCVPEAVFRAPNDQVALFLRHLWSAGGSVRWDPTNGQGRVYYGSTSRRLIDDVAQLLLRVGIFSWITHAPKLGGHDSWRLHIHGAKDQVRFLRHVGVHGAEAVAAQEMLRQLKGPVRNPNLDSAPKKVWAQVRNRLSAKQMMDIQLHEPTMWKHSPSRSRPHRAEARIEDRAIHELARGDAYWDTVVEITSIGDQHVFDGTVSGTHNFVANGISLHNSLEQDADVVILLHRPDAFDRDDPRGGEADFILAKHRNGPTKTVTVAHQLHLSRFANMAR
The experiment is described as follows: DnaB intein splicing inhibitors, dose response, biochemical, cell-free fluorescence (AID 449749). Format: functional.

Experiment [2] has as its target T2, Protein RecA (Mycobacterium tuberculosis, UniProt P9WHJ3).
T2 sequence (P9WHJ3 whole entry): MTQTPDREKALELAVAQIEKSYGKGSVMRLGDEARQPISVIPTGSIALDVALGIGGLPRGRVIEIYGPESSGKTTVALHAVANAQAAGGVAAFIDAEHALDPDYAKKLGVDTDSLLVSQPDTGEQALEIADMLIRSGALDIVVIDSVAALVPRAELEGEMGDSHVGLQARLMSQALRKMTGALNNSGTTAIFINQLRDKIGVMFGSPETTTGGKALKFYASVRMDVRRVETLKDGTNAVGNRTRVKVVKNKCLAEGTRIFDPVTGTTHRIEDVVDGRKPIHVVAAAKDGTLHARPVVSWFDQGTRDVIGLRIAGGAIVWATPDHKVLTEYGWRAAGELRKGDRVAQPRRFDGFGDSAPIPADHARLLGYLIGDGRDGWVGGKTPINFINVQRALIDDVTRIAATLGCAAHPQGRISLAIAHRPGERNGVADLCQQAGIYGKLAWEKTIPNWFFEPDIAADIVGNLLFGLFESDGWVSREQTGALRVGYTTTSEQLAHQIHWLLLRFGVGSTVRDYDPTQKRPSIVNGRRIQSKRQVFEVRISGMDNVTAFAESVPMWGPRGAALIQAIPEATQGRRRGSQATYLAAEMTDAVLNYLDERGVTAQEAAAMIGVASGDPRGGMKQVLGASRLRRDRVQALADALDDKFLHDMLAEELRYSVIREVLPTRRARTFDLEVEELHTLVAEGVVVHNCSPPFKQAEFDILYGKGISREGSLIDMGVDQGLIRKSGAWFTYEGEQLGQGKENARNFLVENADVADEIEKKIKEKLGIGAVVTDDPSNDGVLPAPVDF
Briefly: Fluorescence Cell-Free Homogeneous Dose Retest to Identify Inhibitors of RecA-Intein Splicing Activity. [Related pubchem assays (depositor defined):AID2097, AID2223, AID489010, AID492950]. In kind it is functional.

The target in experiment [3] is Tyrosyl-DNA phosphodiesterase 2 (Homo sapiens, UniProt O95551). The experiment is described as follows: potency against TDP2 phosphodiesterase activity – biochemical, epi absorbance, IC50, dose response (AID 743297).
Chain of Tyrosyl-DNA phosphodiesterase 2 (O95551 whole entry): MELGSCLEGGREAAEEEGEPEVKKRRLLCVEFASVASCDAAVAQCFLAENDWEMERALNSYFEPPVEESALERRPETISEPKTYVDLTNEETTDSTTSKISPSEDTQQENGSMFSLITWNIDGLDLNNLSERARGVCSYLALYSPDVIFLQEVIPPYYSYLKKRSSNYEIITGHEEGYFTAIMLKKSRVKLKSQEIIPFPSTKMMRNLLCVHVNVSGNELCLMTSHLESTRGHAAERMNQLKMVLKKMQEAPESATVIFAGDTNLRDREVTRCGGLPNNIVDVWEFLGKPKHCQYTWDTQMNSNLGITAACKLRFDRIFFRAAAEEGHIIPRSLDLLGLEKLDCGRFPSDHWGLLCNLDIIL
Experiment [4] deals with Luciferin 4-monooxygenase (Photinus pyralis, UniProt P08659). The experiment is described as follows: inhibition of purified Photinus pyralis luciferase – biochemical, luminescence, dose response (AID 1891).
Chain of Luciferin 4-monooxygenase (P08659 whole entry): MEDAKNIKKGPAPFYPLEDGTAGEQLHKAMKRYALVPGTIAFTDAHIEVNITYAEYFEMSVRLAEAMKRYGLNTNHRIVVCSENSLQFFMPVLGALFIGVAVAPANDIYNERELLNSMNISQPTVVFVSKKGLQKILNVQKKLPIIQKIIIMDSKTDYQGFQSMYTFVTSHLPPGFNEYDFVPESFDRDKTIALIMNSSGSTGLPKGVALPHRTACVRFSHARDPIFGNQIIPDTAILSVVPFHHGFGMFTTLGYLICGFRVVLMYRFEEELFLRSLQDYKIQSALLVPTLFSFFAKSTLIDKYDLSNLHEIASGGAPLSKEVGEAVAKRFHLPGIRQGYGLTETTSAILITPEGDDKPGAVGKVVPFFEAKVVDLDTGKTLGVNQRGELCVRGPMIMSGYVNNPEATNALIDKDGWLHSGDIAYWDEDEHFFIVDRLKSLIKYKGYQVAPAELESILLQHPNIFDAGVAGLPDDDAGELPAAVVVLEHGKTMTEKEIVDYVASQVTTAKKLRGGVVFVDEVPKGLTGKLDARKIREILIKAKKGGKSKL
A short description of experiment [5]: Luminescence Cell-Based Dose Confirmation HTS to Identify Inhibitors of Platelet Dense Granule Release. [Related pubchem assays: 1663 (Primary HTS), 1678 (Summary of Project)]. In kind it is functional.
A short description of experiment [6]: A549 cell cytotoxicity, dose response, cytotoxicity control, plate reader, cherry-pick, antagonist series (AID 743412). In kind it is functional, cell-based.
Experiment [7] in a line: toxicity toward HepG2 liver cells – cell-based, plate reader, cherry-pick, antagonist series, cytotoxicity control, dose response (AID 743416). Format: functional.
A short description of experiment [8]: blockers of bursicon-stimulated LGR2 cAMP reporter – cell-based, HEK293, CRE-luciferase reporter, cherry pick, set 2, dose response (AID 743343).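 Further: transfected cells were stimulated with diluted bursicon conditioned medium after compound addition.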 Format: functional. On the technique in general: A reporter such as luciferase makes a cellular process visible.
Experiment [9] can be described thus: blockade of melanocortin 4 receptor signaling – cell-based, plate reader, cherry pick, counter-screen for LGR2 antagonist project, dose response (AID 743444).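 Further: transfected HEK 293 cells stimulated with alpha-MSH peptide; potency of inhibitors of the alpha-MSH evoked signal.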 In kind it is functional.
The nature of experiment [10]: viability loss in HEK293 cells – cell-based, plate reader, cherry-picked samples, cytotoxicity control, dose response (AID 743446). Format: functional.
Experiment [11] concerns the target T3, RNA-binding protein pos-1 (Caenorhabditis elegans, UniProt G5EF15).
T3 sequence (G5EF15 whole entry): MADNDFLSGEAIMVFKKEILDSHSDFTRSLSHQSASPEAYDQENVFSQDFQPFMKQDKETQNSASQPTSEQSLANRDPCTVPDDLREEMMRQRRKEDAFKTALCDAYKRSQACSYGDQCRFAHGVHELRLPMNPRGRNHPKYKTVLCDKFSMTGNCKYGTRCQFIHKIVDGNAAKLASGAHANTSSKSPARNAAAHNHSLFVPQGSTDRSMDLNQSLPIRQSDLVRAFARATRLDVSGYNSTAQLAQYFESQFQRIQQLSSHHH
The experiment is described as follows: disruptors of C. elegans POS-1 RNA interaction – biochemical, fluorescence polarization, dose response (AID 1964).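 Further: purified POS-1 fused to maltose binding protein made in E. coli; potency of compounds blocking POS-1 binding to fluorescent RNA.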

Experiment [12] concerns the target T4, Zinc finger protein mex-5 (Caenorhabditis elegans, UniProt Q9XUB2).
T4 sequence (Q9XUB2 whole entry): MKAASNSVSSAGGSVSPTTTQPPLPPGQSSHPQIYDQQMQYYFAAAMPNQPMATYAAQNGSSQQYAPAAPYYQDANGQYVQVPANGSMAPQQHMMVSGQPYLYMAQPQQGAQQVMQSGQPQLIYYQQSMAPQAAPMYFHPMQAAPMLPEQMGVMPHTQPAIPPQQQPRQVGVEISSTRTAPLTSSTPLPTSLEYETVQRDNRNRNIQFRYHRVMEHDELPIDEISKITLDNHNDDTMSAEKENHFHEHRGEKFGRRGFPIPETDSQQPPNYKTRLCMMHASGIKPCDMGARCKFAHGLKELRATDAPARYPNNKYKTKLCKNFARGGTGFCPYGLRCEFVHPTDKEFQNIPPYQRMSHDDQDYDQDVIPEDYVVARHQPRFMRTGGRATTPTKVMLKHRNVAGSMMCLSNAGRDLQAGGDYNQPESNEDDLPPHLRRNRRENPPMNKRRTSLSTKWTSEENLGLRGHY
Briefly: potency of MEX-5 RNA-binding blockers – biochemical, C. elegans, fluorescence polarization, dose response (AID 1960). In general terms: Fluorescence polarisation rises when a labelled molecule tumbles more slowly, as on binding a larger partner.

Experiment [13] concerns the target Histone-lysine N-methyltransferase NSD2 (Homo sapiens, UniProt O96028). In kind it is biochemical.

Active and inactive are the calls of the source.

The AC50 is the concentration at which the activity in the assay is half-maximal. The EC50 is the concentration that produces a half-maximal response. In general, IC50 refers to the concentration at which inhibition is half-maximal.

Chain of Histone-lysine N-methyltransferase NSD2 (O96028 whole entry): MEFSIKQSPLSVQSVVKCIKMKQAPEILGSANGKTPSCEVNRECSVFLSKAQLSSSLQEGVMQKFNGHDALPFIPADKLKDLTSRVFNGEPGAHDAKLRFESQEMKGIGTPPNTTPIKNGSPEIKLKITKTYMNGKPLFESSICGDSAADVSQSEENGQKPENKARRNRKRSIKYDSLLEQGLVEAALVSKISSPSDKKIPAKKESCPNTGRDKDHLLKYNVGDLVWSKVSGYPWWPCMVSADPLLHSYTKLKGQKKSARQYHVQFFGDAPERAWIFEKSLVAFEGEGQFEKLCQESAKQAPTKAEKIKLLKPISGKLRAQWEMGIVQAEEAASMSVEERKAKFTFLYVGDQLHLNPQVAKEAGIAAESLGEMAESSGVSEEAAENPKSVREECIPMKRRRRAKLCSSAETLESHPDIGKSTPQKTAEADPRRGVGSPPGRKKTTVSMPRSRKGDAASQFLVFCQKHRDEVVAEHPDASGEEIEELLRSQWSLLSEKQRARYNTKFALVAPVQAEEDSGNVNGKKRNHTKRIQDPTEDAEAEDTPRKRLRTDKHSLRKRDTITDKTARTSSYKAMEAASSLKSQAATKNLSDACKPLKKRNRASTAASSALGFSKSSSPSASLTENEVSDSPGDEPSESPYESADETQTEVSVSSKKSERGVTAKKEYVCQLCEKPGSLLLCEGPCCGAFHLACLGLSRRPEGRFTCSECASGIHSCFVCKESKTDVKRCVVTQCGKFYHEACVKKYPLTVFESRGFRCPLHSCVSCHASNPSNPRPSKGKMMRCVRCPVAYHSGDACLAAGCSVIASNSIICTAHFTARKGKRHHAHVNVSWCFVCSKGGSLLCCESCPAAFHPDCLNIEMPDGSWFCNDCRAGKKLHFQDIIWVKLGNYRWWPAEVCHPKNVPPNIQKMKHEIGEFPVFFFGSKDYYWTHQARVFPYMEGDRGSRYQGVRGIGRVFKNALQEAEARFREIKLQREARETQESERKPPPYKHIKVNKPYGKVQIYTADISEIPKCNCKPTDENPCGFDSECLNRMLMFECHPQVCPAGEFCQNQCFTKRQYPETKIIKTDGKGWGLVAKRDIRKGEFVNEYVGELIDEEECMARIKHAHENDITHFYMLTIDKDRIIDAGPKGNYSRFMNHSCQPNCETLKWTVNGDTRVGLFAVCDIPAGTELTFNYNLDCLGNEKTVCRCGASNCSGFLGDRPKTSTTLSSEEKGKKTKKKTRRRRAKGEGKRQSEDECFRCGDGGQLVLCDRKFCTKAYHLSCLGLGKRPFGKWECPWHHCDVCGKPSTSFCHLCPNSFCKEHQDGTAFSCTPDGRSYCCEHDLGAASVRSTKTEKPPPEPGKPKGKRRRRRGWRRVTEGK

For `COc1ccc(/C=C2/C(=O)N(c3ccccc3)N=C2C)cc1Br`, the AC50 in experiment [1] is 2.77 µM (active). Further, the EC50 in [2] was 2.3 µM (active). For the same molecule, the IC50 in [3] is 102 µM (inactive).

Turning to `Cc1cccc(NC(=O)c2ccc3c(c2)OCCO3)c1`, the results for the half-maximal effective concentration (EC50) in experiment [4] and in experiment [5] were 6.2 µM (active) and 6.74 µM (active), respectively. Moreover, the AC50 in experiment [6] is > 52 µM (inactive); in experiment [7], > 52 µM (inactive); in experiment [8], 7.92 µM (active); in experiment [9], 9.29 µM (active); in experiment [10], > 52 µM (inactive).

Turning to `CC1=NN(c2ccc(C(=O)O)c(N)c2)C(=O)C1`, the EC50 in experiment [11] was 85.5 µM (active); in experiment [12], 38.3 µM (active); in experiment [2], 1.98 µM (active). The AC50 in experiment [1] is 3.01 µM (active); in [13], > 20 µM (inactive).

Values taken from ChEMBL document CHEMBL1201862, “PubChem BioAssay data set” (2004).
